Reference: PubChem BioAssay AID1259407 (Chemical Carcinogenesis Research Information System (CCRIS), 2018)
Activity calls are given as the source filed them. No rule for the calls is given here.

Tested on: CCRIS mutagenicity, Ames/micronucleus/aberration tests
Assay: CCRIS mutagenicity studies

Measured: mutagenic call

O=C(O)c1ccccc1C(=O)O
inactive: End Point: In vitro chromosomal aberrations, Test System: Chinese hamster ovary (CHO) cells, Metabolic Activation: None inactive; negative | End Point: In vitro chromosomal aberrations, Test System: Chinese hamster ovary (CHO) cells, Metabolic Activation: Rat, liver, S-9, Aroclor 1254, 10% inactive; negative | End Point: In vivo micronucleus, Test System: Bone marrow polychromatic erythrocytes, Species: Mouse, Strain/Sex: ICR/Male, Route: Intraperitoneal inactive; negative | Test System: AMES SALMONELLA TYPHIMURIUM, Strain/Indicator: TA97, Metabolic Activation: HAMSTER, LIVER, S-9, AROCLOR 1254, 10%, Method: PREINCUBATION inactive; negative | Test System: AMES SALMONELLA TYPHIMURIUM, Strain/Indicator: TA97, Metabolic Activation: HAMSTER, LIVER, S-9, AROCLOR 1254, 30%, Method: PREINCUBATION inactive; negative | Test System: AMES SALMONELLA TYPHIMURIUM, Strain/Indicator: TA97, Metabolic Activation: NONE, Method: PREINCUBATION inactive; negative | Test System: AMES SALMONELLA TYPHIMURIUM, Strain/Indicator: TA97, Metabolic Activation: RAT, LIVER, S-9, AROCLOR 1254, 10%, Method: PREINCUBATION inactive; negative | Test System: AMES SALMONELLA TYPHIMURIUM, Strain/Indicator: TA97, Metabolic Activation: RAT, LIVER, S-9, AROCLOR 1254, 30%, Method: PREINCUBATION inactive; negative | Test System: AMES SALMONELLA TYPHIMURIUM, Strain/Indicator: TA97, Metabolic Activation: RAT, LIVER, S-9, PHENOBARBITAL AND 5,6-BENZOFLAVONE, Method: PREINCUBATION inactive; negative | Test System: AMES SALMONELLA TYPHIMURIUM, Strain/Indicator: TA98, Metabolic Activation: HAMSTER, LIVER, S-9, AROCLOR 1254, 10%, Method: PREINCUBATION inactive; negative | Test System: AMES SALMONELLA TYPHIMURIUM, Strain/Indicator: TA98, Metabolic Activation: HAMSTER, LIVER, S-9, AROCLOR 1254,(30%, Method: PREINCUBATION inactive; negative | Test System: AMES SALMONELLA TYPHIMURIUM, Strain/Indicator: TA98, Metabolic Activation: NONE, Method: PREINCUBATION inactive; negative | Test System: AMES SALMONELLA TYPHIMURIUM, Strain/Indicator: TA98, Metabolic Activation: RAT, LIVER, S-9, AROCLOR 1254, 10%, Method: PREINCUBATION inactive; negative | Test System: AMES SALMONELLA TYPHIMURIUM, Strain/Indicator: TA98, Metabolic Activation: RAT, LIVER, S-9, AROCLOR 1254, 30%, Method: PREINCUBATION inactive; negative | Test System: AMES SALMONELLA TYPHIMURIUM, Strain/Indicator: TA98, Metabolic Activation: RAT, LIVER, S-9, PHENOBARBITAL AND 5,6-BENZOFLAVONE, Method: PREINCUBATION inactive; negative | Test System: AMES SALMONELLA TYPHIMURIUM, Strain/Indicator: TA100, Metabolic Activation: HAMSTER, LIVER, S-9, AROCLOR 1254, 10%, Method: PREINCUBATION inactive; negative | Test System: AMES SALMONELLA TYPHIMURIUM, Strain/Indicator: TA100, Metabolic Activation: HAMSTER, LIVER, S-9, AROCLOR 1254, 30%, Method: PREINCUBATION inactive; negative | Test System: AMES SALMONELLA TYPHIMURIUM, Strain/Indicator: TA100, Metabolic Activation: NONE, Method: PREINCUBATION inactive; negative | Test System: AMES SALMONELLA TYPHIMURIUM, Strain/Indicator: TA100, Metabolic Activation: RAT, LIVER, S-9, AROCLOR 1254, 10%, Method: PREINCUBATION inactive; negative | Test System: AMES SALMONELLA TYPHIMURIUM, Strain/Indicator: TA100, Metabolic Activation: RAT, LIVER, S-9, AROCLOR 1254, 30%, Method: PREINCUBATION inactive; negative | Test System: AMES SALMONELLA TYPHIMURIUM, Strain/Indicator: TA100, Metabolic Activation: RAT, LIVER, S-9, PHENOBARBITAL AND 5,6-BENZOFLAVONE, Method: PREINCUBATION inactive; negative | Test System: AMES SALMONELLA TYPHIMURIUM, Strain/Indicator: TA102, Metabolic Activation: NONE, Method: PREINCUBATION inactive; negative | Test System: AMES SALMONELLA TYPHIMURIUM, Strain/Indicator: TA102, Metabolic Activation: RAT, LIVER, S-9, PHENOBARBITAL AND 5,6-BENZOFLAVONE, Method: PREINCUBATION inactive; negative | Test System: AMES SALMONELLA TYPHIMURIUM, Strain/Indicator: TA104, Metabolic Activation: NONE, Method: PREINCUBATION inactive; negative | Test System: AMES SALMONELLA TYPHIMURIUM, Strain/Indicator: TA104, Metabolic Activation: RAT, LIVER, S-9, PHENOBARBITAL AND 5,6-BENZOFLAVONE, Method: PREINCUBATION inactive; negative | Test System: AMES SALMONELLA TYPHIMURIUM, Strain/Indicator: TA1535, Metabolic Activation: HAMSTER, LIVER, S-9, AROCLOR 1254, 10%, Method: PREINCUBATION inactive; negative | Test System: AMES SALMONELLA TYPHIMURIUM, Strain/Indicator: TA1535, Metabolic Activation: HAMSTER, LIVER, S-9, AROCLOR 1254, 30%, Method: PREINCUBATION inactive; negative | Test System: AMES SALMONELLA TYPHIMURIUM, Strain/Indicator: TA1535, Metabolic Activation: NONE, Method: PREINCUBATION inactive; negative | Test System: AMES SALMONELLA TYPHIMURIUM, Strain/Indicator: TA1535, Metabolic Activation: RAT, LIVER, S-9, AROCLOR 1254 (10%), Method: PREINCUBATION inactive; negative | Test System: AMES SALMONELLA TYPHIMURIUM, Strain/Indicator: TA1535, Metabolic Activation: RAT, LIVER, S-9, AROCLOR 1254, 30%, Method: PREINCUBATION inactive; negative | Test System: Ames Salmonella typhimurium, Strain/Indicator: TA98, Metabolic Activation: None, Method: Preincubation inactive; negative | Test System: Ames Salmonella typhimurium, Strain/Indicator: TA98, Metabolic Activation: Rat, Liver, S-9, Aroclor 1254, Method: Preincubation inactive; negative | Test System: Ames Salmonella typhimurium, Strain/Indicator: TA100, Metabolic Activation: None, Method: Preincubation inactive; negative | Test System: Ames Salmonella typhimurium, Strain/Indicator: TA100, Metabolic Activation: Rat, liver, S-9, Aroclor 1254, Method: Preincubation inactive; negative | Test System: Ames Salmonella typhimurium, Strain/Indicator: TA102, Metabolic Activation: None, Method: Preincubation inactive; negative | Test System: Ames Salmonella typhimurium, Strain/Indicator: TA102, Metabolic Activation: Rat, liver, S-9, Aroclor 1254, Method: Preincubation inactive; negative | Test System: Ames Salmonella typhimurium, Strain/Indicator: TA1535, Metabolic Activation: None, Method: Preincubation inactive; negative | Test System: Ames Salmonella typhimurium, Strain/Indicator: TA1535, Metabolic Activation: Rat, liver, S-9, Aroclor 1254, Method: Preincubation inactive; negative | Test System: Ames Salmonella typhimurium, Strain/Indicator: TA1537, Metabolic Activation: None, Method: Preincubation inactive; negative | Test System: Ames Salmonella typhimurium, Strain/Indicator: TA1537, Metabolic Activation: Rat, liver, S-9, Aroclor 1254, Method: Preincubation inactive; negative
